SMILES strings stand for the structures.

Chain of HPK1 (Q92918 1-346 limits assumed): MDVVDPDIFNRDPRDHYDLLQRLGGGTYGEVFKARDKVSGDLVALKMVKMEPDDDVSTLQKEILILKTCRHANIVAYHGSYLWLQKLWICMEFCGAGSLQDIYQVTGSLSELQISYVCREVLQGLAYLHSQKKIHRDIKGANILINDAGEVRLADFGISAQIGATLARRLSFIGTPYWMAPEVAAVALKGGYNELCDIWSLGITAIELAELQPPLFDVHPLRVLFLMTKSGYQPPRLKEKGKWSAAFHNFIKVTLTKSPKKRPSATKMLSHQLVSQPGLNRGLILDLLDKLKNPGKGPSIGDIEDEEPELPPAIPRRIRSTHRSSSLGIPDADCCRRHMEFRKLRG

In the assay the target is HPK1 (Homo sapiens (Human), UniProt Q92918). The experiment in a line: HPK1 Inhibition Assay (ADP-Glo kinase assay). To be noted: ATP 10 μM. Format: biochemical. The procedure:
A stock solution of 10 mM test compound was prepared in DMSO. The compound was prepared by 5-fold and 10-point serial dilutions with HPK1 kinase assay buffer. The HPK1 kinase assay buffer contained 40 mM Tris, pH 7.5; 20 mM MgCl2, 0.1 mg/ml BSA, and 50 μM DTT. 7.5 ng/μl of Active HPK1 (Promega, V4098) and 0.1 μg/ml MBP substrate protein were added to the reaction system. The final concentration of ATP in the HPK1 kinase reaction system was 10 μM. Serial diluted compounds were transferred to the reaction system and incubated at room temperature for 1 hr. 5 μL of ADP-Glo™ Reagent (Promega, V9101) was added and incubated for 40 min to stop the kinase reaction and deplete the unconsumed ATP. […] The luminescence was measured with a plate-reading luminometer.
On the technique in general: ADP-Glo first removes unused ATP, then detects ADP through luciferase.
`COc1cccc(F)c1-n1cccc(C(=O)Nc2cc(F)c3c(cnn3C)c2N2C[C@H]3C[C@@H]2CN3)c1=O` [Example 53, N-(4-((1R,4R)-2,5-diazabicyclo[2.2.1]heptan-2-yl)-7-fluoro-1-methyl-1H-indazol-5-yl)-1-(2-fluoro-6-methoxyphenyl)-2-oxo-1,2-dihydropyridine-3-carboxamide]: the IC50 (usually the concentration that gives 50% inhibition) lay within 0.1 to 1 µM. The value for `COc1cccc(F)c1-n1cccc(C(=O)Nc2ccc3c(nc(C)n3C)c2N2CCC[C@H]2CN)c1=O` [Example 54, (S)-N-(4-(2-(aminomethyl)pyrrolidin-1-yl)-1,2-dimethyl-1H-benzo[d]imidazol-5-yl)-1-(2-fluoro-6-methoxyphenyl)-2-oxo-1,2-dihydropyridine-3-carboxamide] was under 0.1 µM; that for `COc1cccc(F)c1-c1cccc(C(=O)Nc2cc(F)ccc2N2C[C@H]3C[C@@H]2CN3)[n+]1[O-]` [Example 55, 2-((2-((1R,4R)-2,5-diazabicyclo[2.2.1]heptan-2-yl)-5-fluorophenyl)carbamoyl)-6-(2-fluoro-6-methoxyphenyl)pyridine 1-oxide] was under 0.1 µM. In the case of `COc1cccc(F)c1-c1cccc(C(=O)Nc2ccc3c(cnn3C)c2N2C[C@H]3C[C@@H]2CN3)[n+]1[O-]` [Example 56, 2-((4-((1R,4R)-2,5-diazabicyclo[2.2.1]heptan-2-yl)-1-methyl-1H-indazol-5-yl)carbamoyl)-6-(2-fluoro-6-methoxyphenyl)pyridine 1-oxide] it was under 0.1 µM; in that of `COc1cccc(F)c1-c1cccc(C(=O)Nc2ccc3nn(C)cc3c2N2C[C@H]3C[C@@H]2CN3)[n+]1[O-]` [Example 57, 2-((4-((1R,4R)-2,5-diazabicyclo[2.2.1]heptan-2-yl)-2-methyl-2H-indazol-5-yl)carbamoyl)-6-(2-fluoro-6-methoxyphenyl)pyridine 1-oxide], under 0.1 µM; in that of `COc1cccc(F)c1-c1cccc(C(=O)Nc2cc(F)c3c(cnn3C)c2N2CC[C@H](N)C2)[n+]1[O-]` [Example 58, 2-((4-((S)-3-aminopyrrolidin-1-yl)-7-fluoro-1-methyl-1H-indazol-5-yl)carbamoyl)-6-(2-fluoro-6-methoxyphenyl)pyridine 1-oxide], under 0.1 µM. The compound `COc1cccc(F)c1-c1cccc(C(=O)Nc2cc(F)c3nn(C)cc3c2N2CC[C@H](N)C2)[n+]1[O-]` [Example 59, 2-((4-((S)-3-aminopyrrolidin-1-yl)-7-fluoro-2-methyl-2H-indazol-5-yl)carbamoyl)-6-(2-fluoro-6-methoxyphenyl)pyridine 1-oxide] gave an IC50 of under 0.1 µM. In the case of `COc1cccc(F)c1-c1cccc(C(=O)Nc2ccc3c(nc(C)n3C)c2N2C[C@@H]3C[C@H]2CN3)[n+]1[O-]` [Example 60, 2-((4-((1S,4S)-2,5-diazabicyclo[2.2.1]heptan-2-yl)-1,2-dimethyl-1H-benzo[d]imidazol-5-yl)carbamoyl)-6-(2-fluoro-6-methoxyphenyl)pyridine 1-oxide] it was under 0.1 µM; in that of `COc1cccc(F)c1-c1cccc(C(=O)Nc2ccc3c(nc(C)n3C)c2N2CCC[C@H]2CN)[n+]1[O-]` [Example 61, 2-((4-((S)-2-(aminomethyl)pyrrolidin-1-yl)-1,2-dimethyl-1H-benzo[d]imidazol-5-yl)carbamoyl)-6-(2-fluoro-6-methoxyphenyl)pyridine 1-oxide], under 0.1 µM.

In turn, `COc1cccc(F)c1-c1cccc(C(=O)Nc2ccc3c(nc(C)n3C)c2N2CC[C@H](N)C2)[n+]1[O-]` [Example 62, 2-((4-((S)-3-aminopyrrolidin-1-yl)-1,2-dimethyl-1H-benzo[d]imidazol-5-yl)carbamoyl)-6-(2-fluoro-6-methoxyphenyl)pyridine 1-oxide] displayed a concentration for half-maximal inhibition (IC50) of 0.1 to 1 µM. The compound `COc1cccc(F)c1-c1cccc(C(=O)Nc2cc(F)c3nn(C)cc3c2N2C[C@@H](N)C[C@H]2CO)[n+]1[O-]` [Example 63, 2-((4-((2S,4S)-4-amino-2-(hydroxymethyl)pyrrolidin-1-yl)-7-fluoro-2-methyl-2H-indazol-5-yl)carbamoyl)-6-(2-fluoro-6-methoxyphenyl)pyridine 1-oxide] came in with an IC50 of under 0.1 µM.

The record behind these values is patent US20250122174A1 (Shenzhen Yuanli Shenwan Innovative Medicine Co., Ltd., priority 2022, published 2025).
